Consider 19 compounds from patent US10301292B2, “Bicyclic compound” (Takeda Pharmaceutical Company Limited, priority 2014, dated 2019).

For one assay, the system named is HCT116 cells. Put plainly: Growth inhibitory activity on HCT116 cell (CellTiter-Glo). In kind it is cell-based. The settings on record: table head: 10 μM (text b2498: 1 μM), 3 days incubation; for inhibition at 10 µM: Homo sapiens, HCT-116, 72 h, read-out: HCT116 cell proliferation inhibitory rate (%) at 10 μM. Here is the method: The growth inhibitory activity of the compound on HCT116 cell was evaluated by the following method.
HCT116 cells were seeded in a 384 well blackplate at 900 cells/30 μL/well, and maintained in an RPMI medium (Wako)) containing an assay medium (2% fetal bovine serum, 50 Unit/mL penicillin, 50 μg/mL streptomycin (Invitrogen). The next day, a test compound dissolved in dimethyl sulfoxide (DMSO) was diluted with the assay medium, and the obtained compound solution was added by 10 μL to each well of a plate containing HCT116 cells and incubated at 37° C., 5% CO2 (test compound addition group).
A similar reaction was performed without adding a test compound (test compound non-addition group).
Furthermore, a similar reaction was performed under the conditions without adding HCT116 cell and a test compound (control group).
After 3 days, 20 μL of a CellTiter-Glo reagent (Promega KK) was added to the well, and the mixture was stirred for 10 min. Thereafter, the luminescence value of each well was measured by the EnVision™ multilabel counter (Perkin Elmer Inc.).
The HCT116 cell proliferation inhibitory rate (%) of the test compound was determined by the following calculation formula. (1−(luminescence of test compound addition group−luminescence of control group)÷(luminescence of test compound nonaddition group−luminescence of control group))×100
A general note: Cellular ATP, detected with luciferase, serves as a proxy for viable cell number.

The next assay deals with T1, human ACC1 (Homo sapiens, UniProt Q13085).
T1 construct: His tag (from vector pFAST-BacHTc; protein captured on Ni-NTA) (N); made in house; host or cells: SF-9 insect cells, recombinant baculovirus BAC-ACC1
Put plainly: Measurement of ACC1 inhibitory activity (Malonyl-CoA production, RapidFire-mass spectrometry). In kind it is biochemical. The following applies: 10 μM of the test compound, recombinant human ACC1; for inhibition at 10 µM: read-out: ACC1 inhibitory rate (%) at 10 μM. How it is done: (1) Cloning of Human ACC1 Gene and Preparation of Recombinant Baculovirus
Human ACC1 gene was cloned by PCR using a human liver cDNA library (Clontech) as a template and Primer 1 and Primer 2 shown below. Primer 1 and Primer 2 were prepared by adding SalI, NotI restriction enzyme recognition sequences based on the information of the base sequence of human ACC1 gene (Genbank Accession U19822).
PCR was performed using Pyrobest DNA polymerase (TAKARA BIO INC.). The obtained PCR product was cloned to pT7 Blue vector (Novagen) and after confirmation of the base sequence, digested with restriction enzymes SalI and XbaI. The obtained DNA fragment was inserted into pFAST-BacHTc (Invitrogen) digested with restriction enzymes SalI and XbaI to give expression plasmid ACC1/pFAST-BacHTc.
Using the expression plasmid ACC1/pFAST-BacHTc and BAC-TO-BAC Baculovirus Expression System (Invitrogen), virus stock BAC-ACC1 of recombinant Baculovirus was prepared.
(2) Preparation of ACC1 Protein
SF-9 cells (Invitrogen) were inoculated to a medium (10 L) for insect cells (Sf-900IISFM medium (Invitrogen) containing 5% fetal bovine serum (Trace), 50 mg/L Gentamicin (Wako Pure Chemical Industries, Ltd.), 0.1% Pluronic F-68 (Invitrogen)) at 1.0×10^6 cells/mL, and cultured with shaking in Wave Bioreactor (GE Healthcare) at 27° C., 20 rpm, rocking angle 10°, oxygen concentration 30%.
On day 2 of the culture, recombinant Baculovirus BAC-ACC1 was added, and the cells were cultured for 3 days. The culture medium was centrifuged at 4000×g for 10 min to give virus-infected cells. The cells were washed with phosphate buffered saline (Invitrogen) and centrifuged under the same conditions. The obtained cells were cryopreserved at −80° C.
The cryopreserved cells were thawed in ice and suspended in 800 mL of 25 mM HEPES buffer (pH 7.5) containing 10% Glycerol, 0.3 M NaCl, 1 mM EDTA, 25 mM Sodium β-Glycerophosphate and 1 mM Sodium Orthovanadate, and supplemented with Complete Protease Inhibitor (Roche). The obtained suspension was homogenized two times in a polytron homogenizer (Kinematica) at 20,000 rpm for 20 sec. The obtained cell disruption solution was clarified by centrifugation at 186,000×g for 60 min and the supernatant was passed through Ni-NTA Superflow Cartridges (5 mL) (QUIAGEN). Furthermore, it was washed with 25 mM HEPES buffer (pH 7.5) containing 20 mM Imidazole, 0.3 M NaCl, and eluted with 25 mM HEPES buffer (pH 7.5) containing 250 mM Imidazol, 0.3 M NaCl. The eluate was concentrated by Amicon Ultra-15 (Nihon Millipore K.K.) having a fraction molecular weight of 50K. The obtained concentrate was subjected to gel filtration with 50 mM HEPES buffer (pH 7.5) containing 10 mM MgCl2, 2 mM dithiothreitol, 10 mM tripotassium citrate, 0.3 M NaCl by using HiLoad 26/60 Superdex200 prep grade gel filtration column (GE Healthcare) to give ACC1. The obtained ACC1 was cryopreserved at −80° C.
(3) Measurement of ACC1 Inhibitory Activity
ACC1 obtained in the above-mentioned (2) was diluted with an enzyme reaction buffer (50 mM HEPES (pH 7.5), 10 mM MgCl2, 10 mM Tripottasium Citrate, 2 mM Dithiothreitol, 0.001% Fatty acid free BSA) to a concentration of 0.2 μg/ml, and the mixture was added to each well of a 384 well assay plate by 10 μl. A test compound dissolved in dimethyl sulfoxide (DMSO) was diluted with an enzyme reaction buffer and the resulting solution (5 μl) was added to each well. The mixture was incubated at room temperature for 60 min. Then, a substrate solution (50 mM KHCO3, 200 μM ATP, 200 μM Acetyl-CoA, 5 μl) was added to each well, and the mixture was reacted at room temperature for 30 min. The reaction was quenched by adding a reaction quenching liquid (1.3% formic acid, 0.2 μM Malonyl-^13C3-CoA) by 60 μL each to the obtained reaction mixtures (test compound addition group).
In addition, a reaction was performed in the same manner as above and without adding the test compound (test compound non-addition group). […]

In the case of `CC(=O)NC(C)c1ccc2nc(N3CC(Oc4cccc(OCC5CC5)c4)C3)oc2c1` (stereo not drawn) [Example 1, N-(1-(2-(3-(3-(cyclopropylmethoxy)phenoxy)azetidin-1-yl)-1,3-benzoxazol-6-yl)ethyl)acetamide], in the assay with HCT116 cells, the “HCT116 cell proliferation inhibitory rate (%) at 10 μM” value stood at 12%. Also, the inhibition at 10 µM at human ACC1 turned out to be 100%.
With `CC(=O)NC(C)c1ccc2nc(N3CC(Oc4cccc(OCC5CC5)c4)C3)oc2c1` (stereo not drawn) [Example 1b, N-(1-(2-(3-(3-(cyclopropylmethoxy)phenoxy)azetidin-1-yl)-1,3-benzoxazol-6-yl)ethyl)acetamide], the “HCT116 cell proliferation inhibitory rate (%) at 10 μM” value in the assay with HCT116 cells is listed as 32%. Also, the “ACC1 inhibitory rate (%) at 10 μM” value on human ACC1 (10 µM) amounted to 96%.
`CC(=O)NC(C)c1ccc2nc(-c3ccc(Oc4cccc(OCC5CC5)c4)cc3)oc2c1` (stereo not drawn) [Example 8, N-(1-(2-(4-(3-(cyclopropylmethoxy)phenoxy)phenyl)-1,3-benzoxazol-6-yl)ethyl)acetamide]: the inhibition at 10 µM is 42% in the assay with HCT116 cells and 95% at human ACC1.
Take `CC(=O)NC(C)c1ccc2nc(-c3ccc(Oc4cccc(OCC5CC5)c4)cn3)oc2c1` (stereo not drawn) [Example 9, N-(1-(2-(5-(3-(cyclopropylmethoxy)phenoxy)pyridin-2-yl)-1,3-benzoxazol-6-yl)ethyl)acetamide]: the inhibition at 10 µM in the assay with HCT116 cells amounted to 45%; at human ACC1, 99%.
With `CC(=O)NC(C)c1ccc2nc(-c3ccc(Oc4cccc(OCC5CC5)c4)cn3)oc2c1` (stereo not drawn) [Example 9b, N-(1-(2-(5-(3-(cyclopropylmethoxy)phenoxy)pyridin-2-yl)-1,3-benzoxazol-6-yl)ethyl)acetamide], the “HCT116 cell proliferation inhibitory rate (%) at 10 μM” value with HCT116 cells is 29%. The “ACC1 inhibitory rate (%) at 10 μM” value on human ACC1 turned out to be 99%.
For `CCCOc1cccc(Oc2ccc(-c3nc4ccc(C(C)NC(C)=O)cc4o3)nc2)c1` (stereo not drawn) [Example 12, N-(1-(2-(5-(3-propoxyphenoxy)pyridin-2-yl)-1,3-benzoxazol-6-yl)ethyl)acetamide], the inhibition at 10 µM on human ACC1 turned out to be 94%.
`CCCCOc1cccc(Oc2ccc(-c3nc4ccc(C(C)NC(C)=O)cc4o3)nc2)c1` (stereo not drawn) [Example 13, N-(1-(2-(5-(3-butoxyphenoxy)pyridin-2-yl)-1,3-benzoxazol-6-yl)ethyl)acetamide]: the inhibition at 10 µM in the assay on HCT116 cells was 19%; at human ACC1, 86%.
Regarding `CCCCCc1cccc(OC2CN(c3nc4ccc(C(C)NC(C)=O)cc4o3)C2)c1` (stereo not drawn) [Example 29, N-(1-(2-(3-(3-pentylphenoxy)azetidin-1-yl)-1,3-benzoxazol-6-yl)ethyl)acetamide], at human ACC1, the inhibition at 10 µM worked out at 82%.
`CC(=O)NC(C)c1ccc2oc(-c3ccc(Oc4cccc(OCC5CC5)c4)cn3)cc2c1` (stereo not drawn) [Example 31, N-(1-(2-(5-(3-(cyclopropylmethoxy)phenoxy)pyridin-2-yl)-1-benzofuran-5-yl)ethyl)acetamide]: the inhibition at 10 µM in the assay with HCT116 cells is 42%; at human ACC1, 98%.
Turning to `CC(=O)NC(C)c1ccc2cc(-c3ccc(Oc4cccc(OCC5CC5)c4)cn3)oc2c1` (stereo not drawn) [Example 35, N-(1-(2-(5-(3-(cyclopropylmethoxy)phenoxy)pyridin-2-yl)-1-benzofuran-6-yl)ethyl)acetamide], the inhibition at 10 µM in the assay with HCT116 cells came to 41%; on human ACC1, 94%.
Turning to `CC(=O)NC(C)c1ccc2c(c1)CC(c1ccc(Oc3cccc(OCC4CC4)c3)cn1)O2` (stereo not drawn) [Example 36, N-(1-(2-(5-(3-(cyclopropylmethoxy)phenoxy)pyridin-2-yl)-2,3-dihydro-1-benzofuran-5-yl)ethyl)acetamide], on human ACC1, the inhibition at 10 µM amounted to 100%.
`CC(=O)NC(C)c1ccc2c(c1)CC(c1ccc(Oc3cccc(OCC4CC4)c3)cn1)O2` (stereo not drawn) [Example 36b, N-(1-(2-(5-(3-(cyclopropylmethoxy)phenoxy)pyridin-2-yl)-2,3-dihydro-1-benzofuran-5-yl)ethyl)acetamide]: on human ACC1 (10 µM), the “ACC1 inhibitory rate (%) at 10 μM” value turned out to be 101%.
Consider `CC(=O)NC(C)c1ccc2nc(-c3ccc(Oc4cccc(OCC5CC5)c4)nc3)oc2c1` (stereo not drawn) [Example 37, N-(1-(2-(6-(3-(cyclopropylmethoxy)phenoxy)pyridin-3-yl)-1,3-benzoxazol-6-yl)ethyl)acetamide], for which the inhibition at 10 µM came out at 44% with HCT116 cells and 101% at human ACC1.
For `CC(=O)NC(C)c1ccc2sc(N3CC(Oc4cccc(OCC5CC5)c4)C3)nc2c1` (stereo not drawn) [Example 44, N-(1-(2-(3-(3-(cyclopropylmethoxy)phenoxy)azetidin-1-yl)-1,3-benzothiazol-5-yl)ethyl)acetamide], the inhibition at 10 µM with HCT116 cells worked out at 14%; at human ACC1 it was 100%.
Consider `CC(=O)NC(C)c1ccc2nc(-c3ncc(Oc4cccc(OCC5CC5)c4)cc3C)oc2c1` (stereo not drawn) [Example 47, N-(1-(2-(5-(3-(cyclopropylmethoxy)phenoxy)-3-methylpyridin-2-yl)-1,3-benzoxazol-6-yl)ethyl)acetamide], for which the inhibition at 10 µM at human ACC1 was determined as 82%.
Turning to `CC(=O)NC(C)c1cc2cc(-c3ccc(Oc4cccc(OCC5CC5)c4)cc3)ccc2o1` (stereo not drawn) [Example 52, N-(1-(5-(4-(3-(cyclopropylmethoxy)phenoxy)phenyl)-1-benzofuran-2-yl)ethyl)acetamide], the inhibition at 10 µM in the assay on HCT116 cells worked out at 20%; on human ACC1, 94%.
For the compound `CC(=O)NC(C)c1ccc2cn(-c3ccc(Oc4cccc(OCC5CC5)c4)cc3)nc2c1` (stereo not drawn) [Example 56, N-(1-(2-(4-(3-(cyclopropylmethoxy)phenoxy)phenyl)-2H-indazol-6-yl)ethyl)acetamide], the inhibition at 10 µM on human ACC1 was found to be 94%.
`CC(=O)NC(C)c1ccc2nc(-c3ccc(Oc4cccc(OCC5CC5)c4)cc3)oc2c1C` (stereo not drawn) [Example 93, N-(1-(2-(4-(3-(cyclopropylmethoxy)phenoxy)phenyl)-7-methyl-1,3-benzoxazol-6-yl)ethyl)acetamide]: on human ACC1, the inhibition at 10 µM came to 94%.
Turning to `CC(NC(N)=O)c1ccc2nc(-c3ccc(Oc4cccc(OCC5CC5)c4)nn3)oc2c1` (stereo not drawn) [Example 110, 1-(1-(2-(6-(3-(cyclopropylmethoxy)phenoxy)pyridazin-3-yl)-1,3-benzoxazol-6-yl)ethyl)urea], the inhibition at 10 µM at human ACC1 was found to be 98%.
